How the values were obtained:
BACE1 [1] = biological target: T1, BACE1 (Homo sapiens, UniProt P56817); test: In Vitro BACE Cell-based Assay (HEK cell assay): Aβ40 in conditioned medium of cells stably expressing Amyloid Precursor Protein, sandwich ELISA; settings: read-out: HEK cell assay
Outline: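 Conditioned medium Aβ40 by ELISA: pAb40 capture 3 h 4° C., biotin-6E10 detection 2 h 4° C., Streptavidin-Europium TRF. IC50 fitted from % control.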

BACE1 [2] = biological target: T1, BACE1; test: In Vitro Enzymatic BACE FRET (Fluorescence Resonance Energy Transfer) Assay; type: biochemical; settings: read-out: BACE1 FRET assay
Outline: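 Cleavage of a 50 nM internally quenched peptide substrate is followed by fluorescence after a one-hour reaction in acidic acetate buffer, pH 4.2, terminated by Tris.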

[3] = tested on: amyloid beta peptide (A-beta) in cerebrospinal fluid and brain; test: In Vivo Inhibition of Beta-Secretase: reduction of A-beta levels in CSF and brain; settings: after 4 hrs, mouse or rat
Text: Several animal models, including mouse, rat, dog, and monkey, may be used to screen for inhibition of beta-secretase activity in vivo following administration of a test compound sample. Animals used in this invention can be wild type, transgenic, or gene knockout animals. […] A separate group of animals receive 2% hydroxypropyl methylcellulose, 1% Tween80 alone, containing no test compound, and serve as a vehicle-control group. At the end of the test period, animals are sacrificed and brain tissues, plasma or cerebrospinal fluid are collected. […] Homogenates are centrifuged at 355,000 g, 4° C. for 30 minutes. CSF or brain supernatants are then analyzed for the presence of A-beta peptide by specific sandwich ELISA assays based on ECL (Electrochemiluminescence) technology. For example, rat Abeta40 is measured using biotinylated-4G8 (Signet) as a capture antibody and Fab40 (an in-house antibody specific to the C-terminal of Abeta40) as a detection antibody.

[4] = Table II, Aβ40, 24 h incubation

T1 sequence (P56817 46-501, species assumed): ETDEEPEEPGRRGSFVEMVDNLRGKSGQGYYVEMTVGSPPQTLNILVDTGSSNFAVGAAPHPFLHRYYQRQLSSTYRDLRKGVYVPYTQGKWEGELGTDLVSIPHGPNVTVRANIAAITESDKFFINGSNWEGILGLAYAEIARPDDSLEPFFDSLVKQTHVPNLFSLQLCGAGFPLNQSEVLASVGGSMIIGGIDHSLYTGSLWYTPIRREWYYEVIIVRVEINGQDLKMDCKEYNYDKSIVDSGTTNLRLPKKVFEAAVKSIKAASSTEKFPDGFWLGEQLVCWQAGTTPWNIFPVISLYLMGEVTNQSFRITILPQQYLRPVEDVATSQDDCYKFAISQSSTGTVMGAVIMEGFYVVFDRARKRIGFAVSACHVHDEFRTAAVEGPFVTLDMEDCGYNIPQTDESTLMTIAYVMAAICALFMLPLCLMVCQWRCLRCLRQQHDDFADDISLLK

Row | Structure (SMILES) | IC50 (BACE1 [1]; Table IV, class symbols) [µM] | IC50 (BACE1 [2]; Table IV, class symbols) [µM] | IC50 (BACE1 [2]) [µM] | percent reduction in CSF A-beta levels ([3]; 30 mpk) [%] | percent reduction in brain A-beta levels ([3]; 30 mpk) [%] | percent reduction in CSF A-beta levels ([3]; 10 mpk) [%] | percent reduction in brain A-beta levels ([3]; 10 mpk) [%] | further results
1 | CC(C)(C)C#Cc1cnc2c(c1)[C@]1(COC(N)=N1)c1cc(-c3cccnc3)ccc1O2 [Example 185b, (5S)-3-(3,3-dimethyl-1-butyn-1-yl)-7-(3-pyridinyl)spiro[chromeno[2,3-b]pyridine-5,4′-[1,3]oxazol]-2′-amine] |  |  |  | 72 | 58 |  |  | IC50 (BACE1 [1]; Table III, IC50's in uM ranges): < 0.1 µM; IC50 (BACE1 [2]; Table III, IC50's in uM ranges): < 0.1 µM
2 | COC(C)(C)C#Cc1cnc2c(c1)[C@]1(COC(N)=N1)c1cc(-c3cnccn3)ccc1O2 [Example 586, (5S)-3-(3-methoxy-3-methyl-1-butyn-1-yl)-7-(2-pyrazinyl)spiro[chromeno[2,3-b]pyridine-5,4′-[1,3]oxazol]-2′-amine] | < 0.1 | < 0.1 |  |  |  | 32 | 11 | 
3 | Cc1cc(-c2ccc3c(c2)[C@]2(COC(N)=N2)c2cc(-c4cccnc4F)ccc2O3)on1 [Example 563, (4S)-2′-(2-fluoro-3-pyridinyl)-7′-(3-methyl-5-isoxazolyl)spiro[1,3-oxazole-4,9′-xanthen]-2-amine] | < 0.1 | < 0.1 |  |  |  | 54 | 41 | 
4 | CC1(C)C=C(c2ccc3c(c2)[C@]2(COC(N)=N2)c2cc(-c4cncnc4)ccc2O3)CCO1 [Example 689, (4R)-2′-(6,6-dimethyl-3,6-dihydro-2H-pyran-4-yl)-7′-(5-pyrimidinyl)spiro[1,3-oxazole-4,9′-xanthen]-2-amine] |  |  | < 0.1 | 69 | 41 |  |  | IC50 (BACE1 [1]): < 0.1 µM
5 | CC1(C)CN(c2ccc3c(c2)[C@]2(COC(N)=N2)c2cc(-c4cccnc4)ccc2O3)CCO1 [Example 663, (4S)-2′-(2,2-dimethyl-4-morpholinyl)-7′-(3-pyridinyl)spiro[1,3-oxazole-4,9′-xanthen]-2-amine] | < 0.1 | < 0.1 |  | 57 | 44 |  |  | 
6 | CC(C)(C)COc1ccc2c(c1)[C@]1(COC(N)=N1)c1cc(-c3cccnc3)cnc1O2 [Example 92, (5R)-7-(2,2-dimethylpropoxy)-3-(3-pyridinyl)spiro[chromeno[2,3-b]pyridine-5,4′-[1,3]oxazol]-2′-amine] |  |  |  | 62 | 49 |  |  | IC50 (BACE1 [1]; [4]): < 0.1 µM; IC50 (BACE1 [2]; Table II): < 0.1 µM
7 | NC1=N[C@]2(CO1)c1cc(OCC3CC3)ccc1Oc1ccc(-c3cncnc3)cc12 [Example 61, (4S)-2′-(cyclopropylmethoxy)-7′-(5-pyrimidinyl)spiro[1,3-oxazole-4,9′-xanthen]-2-amine] |  |  |  |  |  | 50 | 18 | IC50 (BACE1 [1]; [4]): < 0.1 µM; IC50 (BACE1 [2]; Table II): < 0.1 µM
8 | NC1=N[C@@]2(CO1)c1cc(-c3ccccc3)ccc1Oc1cnc(C3=CCOCC3)cc12 [Example 545, (5S)-3-(3,6-dihydro-2H-pyran-4-yl)-7-phenylspiro[chromeno[2,3-c]pyridine-5,4′-[1,3]oxazol]-2′-amine] | < 0.1 | < 0.1 |  | 73 | 58 |  |  | 
9 | CC(C)(C)COc1ccc2c(c1)[C@@]1(COC(N)=N1)c1cc(-c3ccncc3)cnc1O2 [Example 808, (5S)-7-(2,2-dimethylpropoxy)-3-(4-pyridinyl)spiro[chromeno[2,3-b]pyridine-5,4′-[1,3]oxazol]-2′-amine] | < 0.1 | < 0.1 |  | 55 | 43 |  |  | 
10 | NC1=N[C@@]2(CO1)c1cc(-c3cncnc3)ccc1Oc1cc(F)c(C3=CCOCC3)cc12 [Example 292, (S)-2′-(3,6-dihydro-2H-pyran-4-yl)-3′-fluoro-7′-(pyrimidin-5-yl)-5H-spiro[oxazole-4,9′-xanthen]-2-amine] | < 0.1 | < 0.1 |  |  |  | 57 | 29 | 
11 | CC(C)(C)COc1cnc2c(c1)[C@]1(COC(N)=N1)c1cc(-c3cccnc3)ccc1O2 [Example 744, (5S)-3-(2,2-dimethylpropoxy)-7-(3-pyridinyl)spiro[chromeno[2,3-b]pyridine-5,4′-[1,3]oxazol]-2′-amine] |  |  |  |  |  | 37 | 26 | 

Second part, led by results:

Row | IC50 (BACE1 [1]; Table IV, class symbols) [µM] | IC50 (BACE1 [2]; Table IV, class symbols) [µM] | IC50 (BACE1 [2]) [µM] | Structure (SMILES) | percent reduction in CSF A-beta levels ([3]; 30 mpk) [%] | percent reduction in brain A-beta levels ([3]; 30 mpk) [%] | percent reduction in CSF A-beta levels ([3]; 10 mpk) [%] | percent reduction in brain A-beta levels ([3]; 10 mpk) [%] | further results
12 |  |  | < 0.1 | Cn1cc(-c2cc3c(cc2F)Oc2ccc(-c4cccnc4)cc2[C@@]32COC(N)=N2)cn1 [Example 531, (4S)-3′-fluoro-2′-(1-methyl-1H-pyrazol-4-yl)-7′-(3-pyridinyl)spiro[1,3-oxazole-4,9′-xanthen]-2-amine] |  |  | 45 | 25 | IC50 (BACE1 [1]; HEK cells): < 0.1 µM
13 | < 0.1 | < 0.1 |  | C[C@@H]1CN(c2ccc3c(c2)[C@]2(COC(N)=N2)c2cc(-c4cccnc4)ccc2O3)C[C@H](C)O1 [Example 662, (4S)-2′-((2R,6S)-2,6-dimethyl-4-morpholinyl)-7′-(3-pyridinyl)spiro[1,3-oxazole-4,9′-xanthen]-2-amine] | 53 | 34 |  |  | 
14 |  |  | < 0.1 | CC(C)(C)/C=C/c1cc2c(cn1)Oc1ccc(-c3cncnc3)cc1[C@@]21COC(N)=N1 [Example 291, (S,E)-3-(3,3-dimethylbut-1-enyl)-7-(pyrimidin-5-yl)-5′H-spiro[chromeno[2,3-c]pyridine-5,4′-oxazol]-2′-amine] |  |  | 62 | 32 | IC50 (BACE1 [1]; HEK cells): < 0.1 µM
15 |  |  | < 0.1 | CC(C)(C)C#Cc1cnc2c(c1)[C@]1(COC(N)=N1)c1cc(-c3cncnc3)ccc1O2 [Example 299, (S)-3-(3,3-dimethylbut-1-ynyl)-7-(pyrimidin-5-yl)-5′H-spiro[chromeno[2,3-b]pyridine-5,4′-oxazol]-2′-amine] | 84 | 81 |  |  | IC50 (BACE1 [1]): < 0.1 µM
16 | < 0.1 | < 0.1 |  | NC1=N[C@@]2(CO1)c1cc(-c3cccnc3F)ccc1Oc1ccc(N3CCOCC3)cc12 [Example 289, (S)-2′-(2-fluoropyridin-3-yl)-7′-morpholino-5H-spiro[oxazole-4,9′-xanthen]-2-amine 2,2,2-trifluoroacetate] | 69 | 52 | 49 | 23 | 
17 | < 0.1 | < 0.1 |  | NC1=NC2(CO1)c1cc(-c3cncnc3)ccc1Oc1c(F)cc(C3=CCOCC3)cc12 (stereo in doubt) [Example 295, (R)-2′-(3,6-dihydro-2H-pyran-4-yl)-4′-fluoro-7′-(pyrimidin-5-yl)-5H-spiro[oxazole-4,9′-xanthen]-2-amine] | 78 | 66 |  |  | 
18 |  |  | < 0.1 | NC1=N[C@]2(CO1)c1cc(C#CC3(O)CCC3)ccc1Oc1ccc(-c3cncnc3)cc12 [Example 956, 1-(((4R)-2-amino-7′-(5-pyrimidinyl)spiro[1,3-oxazole-4,9′-xanthen]-2′-yl)ethynyl)cyclobutanol] | 25 | 8 |  |  | IC50 (BACE1 [1]): < 0.1 µM
19 | < 0.1 | < 0.1 |  | CC(C)(C#N)COc1ccc2c(c1)[C@@]1(COC(N)=N1)c1cc(-c3ccccc3)cnc1O2 [Example 817, 3-(((5S)-2′-amino-3-phenylspiro[chromeno[2,3-b]pyridine-5,4′-[1,3]oxazol]-7-yl)oxy)-2,2-dimethylpropanenitrile] | 44 | 25 |  |  | 
20 |  |  | < 0.1 | CC1(C)CN(c2ccc3c(c2)[C@]2(COC(N)=N2)c2cc(-c4cccnc4F)ccc2O3)CCO1 [Example 290, (S)-2′-(2,2-dimethylmorpholino)-7′-(2-fluoropyridin-3-yl)-5H-spiro[oxazole-4,9′-xanthen]-2-amine] |  |  | 63 | 33 | IC50 (BACE1 [1]; HEK cells): < 0.1 µM
21 |  |  | < 0.1 | CC1(C)CN(c2cc3c(cn2)Oc2ccc(-c4cccnc4)cc2[C@@]32COC(N)=N2)CCO1 [Example 490, (5S)-3-(2,2-dimethyl-4-morpholinyl)-7-(3-pyridinyl)spiro[chromeno[2,3-c]pyridine-5,4′-[1,3]oxazol]-2′-amine] |  |  | 28 | 9 | IC50 (BACE1 [1]; HEK cells): < 0.1 µM
22 | < 0.1 | < 0.1 |  | NC1=NC2(CO1)c1cc(-c3cccnc3)ccc1Oc1c(F)cc(C3=CCOCC3)cc12 (stereo in doubt) [Example 297, (R)-2′-(3,6-dihydro-2H-pyran-4-yl)-4′-fluoro-7′-(pyridin-3-yl)-5H-spiro[oxazole-4,9′-xanthen]-2-amine] | 69 | 54 |  |  | 
23 |  |  | < 0.1 | CC(C)(F)COc1cc(F)c2c(c1)[C@]1(COC(N)=N1)c1cc(-c3cncnc3)ccc1O2 [Example 293, (S)-4′-fluoro-2′-(2-fluoro-2-methylpropoxy)-7′-(pyrimidin-5-yl)-5H-spiro[oxazole-4,9′-xanthen]-2-amine] |  |  | 73 | 63 | IC50 (BACE1 [1]; HEK cells): < 0.1 µM

From US8426447B2, “Spiro-tricyclic ring compounds as beta-secretase modulators and methods of use” (Amgen Inc., priority 2008, dated 2013)
